Test results reported in publication PMC8587999, “Assessment of the Activity of Decoquinate and Its Quinoline-O-Carbamate Derivatives against Toxoplasma gondii In Vitro and in Pregnant Mice Infected with T. gondii Oocysts” (Molecules, 2021).
≈ marks a conversion by molar mass, not a printed value. Where “and” joins values, the source holds several entries; their conditions need not be identical. Equal entries are not always repeated.

How the values were obtained:
Sarcocystis neurona = tested on: Sarcocystis neurona; parameters: method as in PMID 23523012; settings: cited from earlier work
[1] = parameters: method as in PMID 19614848; settings: milking cows, formulated DCQ 0.5 mg/kg; cited from earlier work
T. gondii oocysts = tested on: T. gondii oocysts; parameters: method as in PMID 8735260; settings: treatment commencing 10 days prior to infection with T. gondii oocysts; cited from earlier work
[2] = parameters: method as in PMID 32626086; settings: cited from earlier work
[3] = parameters: method as in https://www.drugs.com/pro/deccox.html; settings: rats; ref https://www.drugs.com/pro/deccox.html; cited from earlier work
[4] = tested on: T. gondii TgShSp1 oocysts; experiment: DCQ efficacy assessment in pregnant CD1 mice orally infected with TgShSp1 oocysts; format: in vivo
Method: Twenty-nine female and 15 male CD1 mice, all 8 weeks of age, were used. Oestrus-synchronization and mating was carried out as described under Section 4.6. Subsequently, females were distributed randomly to 3 experimental groups: DCQ, DCQ + infection (n = 12); C+, corn oil + infection (n = 12); C-, only corn oil (n = 5). Infection was performed with 100 TgShSp1 oocysts at day 7 post-mating by oral gavage; the C− group received PBS. The treatment with DCQ suspended in corn oil at 10 mg/kg/day for 5 days; that only with corn oil was initiated at 2 days post-infection. At day 18 post-mating, pregnant mice were distributed into single cages and non-pregnant mice were housed together with 3–4 animals per cage. Dams gave birth between day 20–22, and clinical status, litter size, neonatal and postnatal mortality were recorded daily. Four weeks post-partum (p.p.), all mice were euthanized in a chamber by isoflurane/CO2 inhalation. Blood and brain samples were collected. Total IgG was measured in T. gondii infected mice by ELISA [49].
(§1) Quantification of the cerebral parasite load in non-pregnant mice, dams and pups was carried out with an established real-time PCR method for the detection of T. gondii. The NucleoSpin DNA RapidLyze Kit (Macherey-Nagel, Oensingen, Switzerland) was used for DNA purification according to the standard protocol and DNA concentrations were quantified by the QuantiFluor double-stranded DNA (dsDNA) system (Promega, Madison, WI, USA). Quantitative real-time PCR was performed with the Light Cycler (Roche, Basel, Switzerland), and the parasite load was calculated by including a standard curve of DNA samples from 1000, 100, and 10 T. gondii tachyzoites per run.
(§2) Graph creation and statistical analysis was performed in GraphPad Prism version 5.0 (GraphPad Software, La Jolla, CA, USA). Cerebral parasite burdens were compared between groups by the non-parametric Kruskal–Wallis test, followed by Mann–Whitney U test. Pup mortality over time was depicted by plotting survival events at each time point in Kaplan–Meier graphs and survival curves were compared by the Log-rank (Mantel–Cox) test.

[5] = tested on: T. gondii TgShSp1 oocysts; experiment: RMB060 efficacy assessment in pregnant CD1 mice orally infected with TgShSp1 oocysts; format: in vivo
Method: Eight-week-old CD1 mice, 29 females and 15 males, were used. After oestrus-synchronization and mating, females were randomly distributed to 3 experimental groups: RMB060, RMB060 + infection (n = 12); C+, corn oil + infection (n = 12); C−, only corn oil (n = 5). Infection was carried out at day 7 post-mating with 100 TgShSp1 oocysts suspended in 100 µL PBS, with the C−group receiving only PBS. Treatments, separation of pregnant and non-pregnant mice, and monitoring were performed as described in Section 4.7. All mice were euthanized 4 weeks p.p. by isoflurane/CO2. Blood and brain samples were collected. Total IgG was measured in T. gondii infected mice by ELISA to see whether drug treatment would have an impact on the humoral immune response.
as §1, §2

[6] = CD1 mice, TgShSp1 oocysts, 10 mg/kg/day oral for 5 days, positive/total adult mice
[7] = brain PCR, surviving pups, 10 mg/kg/day oral for 5 days
[8] = brain PCR, 10 mg/kg/day oral for 5 days
[9] = dead pups/pups born, 10 mg/kg/day oral for 5 days, 10 mg/kg/day
[10] = real-time PCR, 4 weeks p.p., non-pregnant mice and dams
[11] = serum at end of experiment, RIPC, non-pregnant mice and dams

CCCCCCCCCCOc1cc2c(O)c(C(=O)OCC)cnc2cc1OCC [DCQ, ethyl 6-decyloxy-7-ethoxy-4-oxo-1H-quinoline-3-carboxylate]
Activity against S. neurona schizonts (Sarcocystis neurona; 10 day treatment at 240 nM): parasiticidal activity
IC50 (Sarcocystis neurona; read-out: IC50 values for S. neurona merozoites): 0.6 to 1.1 nM
maximum concentration attained in plasma [1]: 2 µM
Outcome of prophylactic treatment in ewes (T. gondii oocysts): decreased pathological changes in the placental tissue
aqueous solubility [2]: 0.06 µg/mL (≈ 0.144 µM)
LD50 [3]: > 5000 mg/kg
Vertical transmission ([4]; 10 mg/kg/day for 5 days): did not prevent vertical transmission
Neonatal pup mortality ([4]; 10 mg/kg/day for 5 days, C+ group 40%): 70%
No. of Pups/No. of Dams ([4]; 10 mg/kg/day oral for 5 days): 92/8
Seropositive for T. gondii [4, 6]: 11/12
Brain infection detected in adult mice (dams and non-pregnant mice) ([4]; PCR, 10 mg/kg/day for 5 days): 11 out of 12
T. gondii Positive Pups [4, 7]: 25/25
T. gondii Positive Dams [4, 8]: 8/8
T. gondii Positive Non-Pregnant Mice [4, 8]: 3/4
Neonatal Mortality [4, 9]: 64 out of 92 and 64/92
Postnatal Mortality ([4]; dead/remaining pups, 1-month follow-up, 10 mg/kg/day oral for 5 days, 10 mg/kg/day): 3 of the 28 and 3/28
Cerebral parasite burden compared to the C+ group [4, 10]: No statistically significant differences
T. gondii IgG antibody titers compared to the C+ group [4, 11]: no statistically significant differences

CCCCCCCCCCOc1cc2c(OC(=O)N3CCN(S(C)(=O)=O)C3=O)c(C(=O)OCC)cnc2cc1OCC [RMB060]
Vertical transmission ([5]; 10 mg/kg/day for 5 days): vertical transmission to pups could not be prevented
Postnatal Mortality ([5]; 10 mg/kg/day for 5 days, C+ group 9.2%): 3.8%
Neonatal Mortality ([5]; 10 mg/kg/day for 5 days, C+ group 23%, non-significant): 16.8%
Surviving pups PCR-positive for T. gondii in the brain ([5]; 10 mg/kg/day for 5 days, C+ group 89%): 62%
No. of Pups/No. of Dams ([5]; 10 mg/kg/day oral for 5 days): 125/10
Seropositive for T. gondii [5, 6]: 8/12
Survival curves of pups compared to the C+ group ([5]; Kaplan–Meier, Log-rank (Mantel-Cox) test): No statistically significant differences
Brain infection detected in adult mice (dams and non-pregnant mice) ([5]; PCR, 10 mg/kg/day for 5 days): eight out of 12
T. gondii Positive Pups [5, 7]: 62/100
T. gondii Positive Dams [5, 8]: 7/10
T. gondii Positive Non-Pregnant Mice [5, 8]: 1/2
Neonatal Mortality [5, 9]: 21 out of 125 and 21/125
Postnatal Mortality ([5]; dead/remaining pups, 10 mg/kg/day oral for 5 days): 4/104
Cerebral parasite burden compared to the C+ group [5, 10]: No statistically significant differences
T. gondii IgG antibody titers compared to the C+ group [5, 11]: no statistically significant differences
